Tests used:
VC199 [sir-2.1(ok434)] = experiment: Lipofuscin autofluorescence measurement, VC199; assay type: in vivo, C. elegans; conditions: increasing concentrations of SA, day 15; p=0.50
Procedure: As with the N2 strain, the present inventors treated VC199 nematodes with increasing concentrations of SA and assessed the age-dependent accumulation of autofluorescent lipofuscin granules and decrease in pharyngeal pumping rate.
Synchronized late L4/early young adult worms were plated on FUDR containing SA-OP50-seeded NGM plates and worms were maintained at 20° C. Every fifth day, 10-15 worms were mounted onto 2% agar pads and anesthetized with 3 mM levamisole in DMSO. Images were taken at 250-ms exposure under a DAPI filter using an epifluorescence microscope (Nikon Eclipse 80i) equipped with a Lambda LS Xenon lamp (Sutter Instrument Company) and Nikon Plan Fluor 20× dry and Nikon Plan Apo 60×1.3 oil objectives. The fluorescence was calculated using ImageJ software.

N2 WT C. elegans [1] = experiment: Oxygen consumption rate of whole worms, N2; assay type: in vivo; conditions: whole worms over several days; p>0.05
Source text: Mitochondria lie at the center of aging biology, playing crucial roles in energy production, carbon substrate metabolism, apoptosis regulation, and redox balance and signaling. Since sirtuins play a major role in regulating mitochondrial function, the present inventors next wanted to investigate whether SA was exerting any of its effects via protection of mitochondrial processes. To investigate SA's effects on mitochondrial respiration, the present inventors administered SA to WT N2 (FIG. 5A) and non-functional SIR-2.1 mutant worms (FIG. 5B) and measured oxygen consumption rate (OCR) in whole worms over several days. […] The present inventors also examined the effect of SA treatment on mitochondrial DNA (mtDNA) integrity.
Oxygen consumption rate for whole C. elegans was measured using a Seahorse Bioscience XF^e96 Analyzer. Worms were harvested from Day 0, 2, and 15 colonies maintained on FUDR containing SA-OP50-seeded NGM plates by washing in M9 medium, followed by floatation on an ice-cold 60% w/v sucrose gradient to segregate clean bacteria-free adult worms from bacterial debris. Worms were seeded at 1,000 worms/well in M9. After 20 min equilibration, a 2-min measurement was performed to obtain basal OCR for all experimental conditions and strains.

mice = conditions: administering SA in mice; cited from earlier work
N2 WT C. elegans [2] = experiment: F3-IsoP quantification by GC/MS, N2; assay type: in vivo; conditions: Day 1 of adulthood until Day 15
Source text: One of the major stimuli for activation of sirtuins is oxidative stress. […] Indeed, the mitochondrial antioxidant manganese superoxide dismutase (MnSOD) has been identified as one of the major protein targets that is deacetylated by sirtuin isoforms, with deacetylation enhancing the enzymatic activity of MnSOD [60]. If SA indeed preserves SIR-2.1 enzymatic function in vivo, the present inventors hypothesized that SA treatment would dose-dependently decrease biomarkers of oxidant injury in a SIR-2.1-dependent manner. To quantify oxidant injury, the present inventors measured F3-isoprostanes (F3-IsoPs). […] To further characterize SA's ability to preserve SIR-2.1 function, the present inventors assessed acetylation of MnSOD at Lys 122.
F3-Isoprostanes were quantified from SA-treated worms a gas-chromatography-negative ion chemical ionization-mass spectrometry (GC-NICI-MS) approach. […]
Samples were spiked with 248 pg of deuterated internal standards, [^2H4]-15-F2t-IsoP, quantified and calibrated by the method of Milne et al. and acidified to pH<3 with HCl in preparation for further Separation Phase Extraction (SPE). […]
Eluates were dried under nitrogen and F3—IsoPs and resuspended in MeOH for separation by Thin Layer Chromatography (TLC). […] Deuterated F2-IsoP standard was measured at m/z 573. F3—IsoP was measured at m/z 567. […]

NCc1ccccc1O [SA, salicylamine]
accumulation of lipofuscin (VC199 [sir-2.1(ok434)]): none of the doses of SA used were able to decrease the accumulation of lipofuscin
mitochondrial oxygen consumption rate (OCR) (N2 WT C. elegans [1]): no effect
age-related loss of working memory (mice): prevents the age-related loss of working memory
decrease in F3-IsoP production (N2 WT C. elegans [2]; 100 μM SA, p<0.01): 29%
decrease in F3-IsoP levels (N2 WT C. elegans [2]; 500 μM SA, p<0.005): 44%

Source: patent US11633370B2, “Use of scavengers of reactive gamma-ketoaldehydes to extend cell lifespan and healthspan” (Vanderbilt University, priority 2016, dated 2023)
